Data from PMC3356272, “An Analogue of the Antibiotic Teicoplanin Prevents Flavivirus Entry In Vitro” (PLoS ONE, 2012).

Columns and labels:
DiD-labeled DENV = assay: Fusion assay with DiD-labeled DENV; format: cell-based, dengue virus; settings: BS-C-1 cells; for membrane fusion activity of DENV, reference controls: NH4Cl 50 mM, chlorpromazine 60 µM
DENV-2 NGC [1] = format: cell-based, dengue virus
[2] = test system: uninfected host cell cultures; assay: Cell counting with a Coulter Counter; format: cell-based; settings: 50 and 100 µM, cells counted with a Coulter Counter
dengue reporter virus = format: cell-based
DENV subgenomic replicon = assay: DENV replicon system; format: cell-based, dengue virus; settings: BHK-Rep-Pac-LUC cells, luciferase at 72 hours
YFV-17D [3] = format: cell-based, yellow fever virus
YFV-17D [4] = format: cell-based, yellow fever virus; remark: listed apart in the source
DENV-2 = assay: Virucidal assay; settings: 50 µM, 1 h, 37°C, with or without RNase A
DENV-2 NGC [5] = assay: CPE-reduction assay; settings: 25 and 12.5 µM, Vero-B cells, day 8 p.i.

## CN(C)CCCN1c2ccccc2Sc2ccc(Cl)cc21 [chlorpromazine]
DiD-labeled DENV
  membrane fusion activity of DENV, reference controls: efficiently reduced

## CC(C)(C)OC(=O)NC1C(=O)NC2Cc3ccc(c(Cl)c3)Oc3cc4cc(c3O)Oc3ccc(cc3Cl)C(O)C3NC(=O)C(NC(=O)C4NC(=O)C(NC2=O)c2cc(O)cc(c2)Oc2cc1ccc2O)c1ccc(O)c(c1)-c1c(O)cc(O)cc1C(C(=O)NC1C2CC4CC(C2)CC1C4)NC3=O (centres unmarked) [LCTA-949]
DENV-2 NGC [1]
  DENV E protein expression: completely inhibited
[2]
  cytostatic effects: some cytostatic effects
P388D1 cells
  cytotoxic effects: No cytotoxic effects
Dengue reporter virus
  inhibition of DENV infection: failed to efficiently inhibit
  inhibition of viral replication and viral antigen expression: nearly complete inhibition
DENV subgenomic replicon
  replication of the DENV subgenomic replicon: did not inhibit
DiD-labeled DENV; 20 min p.i. at 37°C, 6.25-25.0 µM
  membrane fusion activity of DENV: markedly impaired
YFV-17D [3]
  inhibition of viral replication: nearly complete inhibition
  protective activity against YFV: most of the protective activity of LCTA-949 was already lost
Vero-B cells
  cytotoxicity: did not prove cytotoxic
  viability of uninfected host cell cultures: did not reduce viability
Vero-B cells; green monkey
  CC50: > 100 µM
YFV-17D [4]
  YFV NS1 protein expression: completely inhibited
DENV-2
  direct virucidal activity: does not destroy the viral particle
DENV-2 NGC [5]
  DENV-2-induced CPE formation: completely inhibited

## Cl.N [ammonium chloride]
DiD-labeled DENV
  membrane fusion activity of DENV, reference controls: efficiently reduced
